Measurements taken from patent publication US6468973B1, “Method in the treatment of schizophrenia” (priority 1998, dated 2002).

Tested on: patient with a severe form of schizophrenia
Assay: Case study: treatment of a patient with a severe form of schizophrenia with a GnRH-analogue
Format: in vivo, human
Description: 3. […] The patient had previously been treated with various dopamine receptor antagonists without any major improvement.
The GnRH-analogue triptorelin is available in a pharmaceutical preparation (Decapeptyl® Depot). In the use of this preparation, an injection is administered containing triptorelin embonate in a dose corresponding to 3.75 mg triptorelin. Injections with this dose are given intramuscularly. They should be repeated every fourth week from the first injection.
A detailed case study of the treatment of a patient with a severe form of schizophrenia is disclosed in the following, as supporting evidence of the effect of the method.
They had previously by other psychiatrists been given traditional treatment, for several years, without any major improvement in the symptoms of schizophrenia.
The situation when the patient came to the clinic was that they had sickness pension since more than twenty years. Their contacts with other persons were highly restraint. […] The clinical diagnosis was that they suffered from a very serious form of schizophrenia. They had no signs of any other mental illness or personality disorder. Thus, it was a clearly defined case of schizophrenia.
Certain symptoms of androgenic hyperactivity such as a male pattern baldness and frequent sexual delusions were also found at the initial examination.
An endocrinological investigation was performed, based upon their symptoms of androgenic hyperactivity. This disclosed a low blood concentration of free testosterone. Since the patient had symptoms of androgenic hyperactivity this laboratory finding could, however, not be a symptom of a low androgenic activity. Instead, the interpretation of this laboratory finding was that it was a sign of a compensatory reduction in the synthesis and release of testosterone occurring as a consequence of an increased androgenic activity in the brain.
During long periods of time the patient had been treated with the drugs which presently are considered to have the best effect against schizophrenia.
In order to overcome the sexual delusions, treatment with the long-acting GnRH-analogue triptorelin (Decapeptyl® Depot) was given every fourth week as deep intramuscular depot injections with a dose corresponding to 1.75 mg triptorelin in each injection. Initially, they were also treated with flutamid in order to prevent a transient increase in androgenic activity.
It is obvious that the dramatic improvement of the patient was caused by the treatment with a GnRH-analogue.

[1] = same patient and regimen, after another three months (five months in total)

In the case of `CC(C)C[C@H](NC(=O)[C@@H](Cc1c[nH]c2ccccc12)NC(=O)[C@H](Cc1ccc(O)cc1)NC(=O)[C@H](CO)NC(=O)[C@H](Cc1c[nH]c2ccccc12)NC(=O)[C@H](Cc1c[nH]cn1)NC(=O)[C@@H]1CCC(=O)N1)C(=O)N[C@@H](CCCNC(=N)N)C(=O)N1CCC[C@H]1C(=O)NCC(N)=O` [triptorelin], the “clinical improvement of schizophrenia” value (one patient, very severe schizophrenia, after six months of treatment, previously dopamine receptor antagonists without major improvement) is reported as “dramatically improved”, the “patient's condition (schizophrenia symptoms)” value (person, Decapeptyl Depot i.m. every fourth week, dose corresponding to 1.75 mg triptorelin, initially with flutamid, after two months treatment) is reported as “began to feel better” and the delusions [1] is reported as “markedly reduced”. For the same compound, the hallucinations [1] was “all hallucinations had disappeared” and the “patient's condition (schizophrenia symptoms)” value [1] was “dramatically better”.
